US12419890B2, “Administration of sumo-activating enzyme inhibitor and checkpoint inhibitors” (Takeda Pharmaceutical Company Limited, priority 2019, dated 2025)

System: JC syngeneic mouse breast adenocarcinoma-derived subcutaneous tumor
Assay: JC Study 6: mouse JC syngeneic tumor model, individual tumor volume
Assay type: in vivo
Details: Compound I-263a 7.5 mg/kg IV or anti-mPD-1 10 mg/kg IP, BIWx3 till Day 14
Protocol: JC Study 6: JC is a mouse breast adenocarcinoma cell line. JC mouse syngeneic tumor model was generated by subcutaneous inoculation with 0.2×10^6 JC cells (cell suspension) in 10 weeks old female BALB/c mice (Vital River Laboratory Animal Technology Co., Ltd., Beijing, China) in the flank. When the mean tumor volume reached approximately 45 mm^3, the animals were randomized into one vehicle control and five treatment groups (n=8/group). Mice were then dosed with 20% HPbCD or Compound I-263a or anti-mouse PD-1 antibody over a 21-day period. Tumor growth and body weight were measured twice per week during the treatment and post-treatment periods, and mice were humanely euthanized once they had reached their humane endpoint.
Study 6: A 0.75 mg/mL stock solution of Compound I-263a was formulated weekly in 20% HPβCD and administered intravenously (IV) based on exact animal body weight on each day of treatment, using a dosing volume of 10 mL/kg body weight. Final doses received were 7.5 mg/kg. Dosing volume for Compound I-263a was 0.2 mL. […]
Tumors were measured twice weekly using vernier calipers. Tumor volumes were calculated using standard equation: V=W^2×L/2, where V=volume, W=width, and L=length for the tumor. […] Tumor size and body weight were measured twice a week for the duration of the study. […]

Cc1sc(C(=O)c2cncnc2N[C@@H]2C[C@H](COS(N)(=O)=O)[C@@H](O)C2)cc1[C@@H]1NCCc2ccc(Cl)cc21 [Compound I-263a, [(1R,2S,4R)-4-{[5-({4-[(1R)-7-chloro-1,2,3,4-tetrahydroisoquinolin-1-yl]-5-methyl-2-thienyl}carbonyl)pyrimidin-4-yl]amino}-2-hydroxycyclopentyl]methyl sulfamate]
tumor growth inhibition / antitumor activity (8 tumors/group): very little tumor growth inhibition | tumors with slight growth delay (delay from day 16-18, out of 8 implanted): one
